Source: ChEMBL document CHEMBL4354830, “Discovery of Benzo[cd]indol-2(1H)-ones and Pyrrolo[4,3,2-de]quinolin-2(1H)-ones as Bromodomain and Extra-Terminal Domain (BET) Inhibitors with Selectivity for the First Bromodomain with Potential High Efficiency against Acute Gouty Arthritis” (J Med Chem, 2019)
Activity calls are given as the source filed them. No cut-off for these calls is given here.

How the values were obtained:
[1] = biological target: T1, Bromodomain-containing protein 4 (Homo sapiens, UniProt O60885); assay: Inhibition of BRD4 BD1 in human THP1 cells assessed as inhibition of MSU-induced NLRP3 inflammasome at 1 uM incubated for 1 hr followed by MSU treatment and measured after 12 hrs by immunofluorescence based confocal microscopy analysis; assay type: cell-based
[2] = biological target: T1, Bromodomain-containing protein 4; assay: Inhibition of BRD4 BD1 in human THP1 cells assessed as Inhibition of MSU-induced IL-1beta secretion at 1 uM incubated for 1 hr followed by MSU treatment and measured after 12 hrs by ELISA; assay type: cell-based
Homo sapiens [3] = species on record: Homo sapiens; assay: Selectivity index, ratio of IC50 for BRD3 BD2 (unknown origin) to IC50 for recombinant human N-terminal His-tagged BRD4 BD1 (44 to 170 residues) expressed in Escherichia coli by AlphaScreen assay
[4] = Metabolic stability in rat assessed as intrinsic hepatic clearance by LC/MS-MS analysis; assay type: ADME; conditions: read-out: CLH
Rattus norvegicus [5] = assay: In vivo inhibition of MSU-induced pyroptosis in Sprague-Dawley rat model of acute gout arthritis assessed as caspase-/PI- macrophage cells in synovial tissue at 1 mg/kg, ia administered 1 hr before MSU challenge and measured upto 24 hrs by PI staining based flow cytometric analysis (reference value: 63.6 %); assay type: functional; parameters: scale not given: the % may be the effect or the level left
Rattus norvegicus [6] = assay: Anti-arthritic activity in Sprague-Dawley rat model of acute gout arthritis assessed as reduction in MSU-induced joint swelling at 1 mg/kg, ia administered 1 hr before MSU challenge and measured upto 24 hrs; assay type: functional, organism-based
[7] = Metabolic stability in monkey liver microsomes assessed as intrinsic clearance per mg protein measured upto 60 mins by LC/MS-MS analysis; assay type: ADME, Macaca mulatta, Microsome; conditions: rhesus monkey, read-out: CLH
[8] = biological target: T1, Bromodomain-containing protein 4; assay: Inhibition of BRD4 BD1 in human THP1 cells assessed as inhibition of MSU-induced ASC activation at 1 uM incubated for 1 hr followed by MSU treatment and measured after 12 hrs by immunofluorescence based confocal microscopy analysis; assay type: cell-based
[9] = Metabolic stability in dog liver microsomes assessed as intrinsic clearance measured per mg protein upto 60 mins by LC/MS-MS analysis; assay type: ADME, Canis lupus familiaris, Microsome; conditions: read-out: CLH
[10] = Metabolic stability in rat liver microsomes assessed as intrinsic clearance measured per mg protein upto 60 mins by LC/MS-MS analysis; assay type: ADME, Microsome; conditions: read-out: CLH
[11] = biological target: Bromodomain-containing protein 2 (Homo sapiens, UniProt P25440); assay: Displacement of tetra-acetylated histone H4 peptide (1-21) from BRD2 BD2 (unknown origin) incubated for 30 mins followed by further incubation with tetra-acetylated histone H4 peptide (1-21) for 30 mins by Alphascreen assay
Sequence of Bromodomain-containing protein 2 (P25440 whole entry, the tested form may be a part): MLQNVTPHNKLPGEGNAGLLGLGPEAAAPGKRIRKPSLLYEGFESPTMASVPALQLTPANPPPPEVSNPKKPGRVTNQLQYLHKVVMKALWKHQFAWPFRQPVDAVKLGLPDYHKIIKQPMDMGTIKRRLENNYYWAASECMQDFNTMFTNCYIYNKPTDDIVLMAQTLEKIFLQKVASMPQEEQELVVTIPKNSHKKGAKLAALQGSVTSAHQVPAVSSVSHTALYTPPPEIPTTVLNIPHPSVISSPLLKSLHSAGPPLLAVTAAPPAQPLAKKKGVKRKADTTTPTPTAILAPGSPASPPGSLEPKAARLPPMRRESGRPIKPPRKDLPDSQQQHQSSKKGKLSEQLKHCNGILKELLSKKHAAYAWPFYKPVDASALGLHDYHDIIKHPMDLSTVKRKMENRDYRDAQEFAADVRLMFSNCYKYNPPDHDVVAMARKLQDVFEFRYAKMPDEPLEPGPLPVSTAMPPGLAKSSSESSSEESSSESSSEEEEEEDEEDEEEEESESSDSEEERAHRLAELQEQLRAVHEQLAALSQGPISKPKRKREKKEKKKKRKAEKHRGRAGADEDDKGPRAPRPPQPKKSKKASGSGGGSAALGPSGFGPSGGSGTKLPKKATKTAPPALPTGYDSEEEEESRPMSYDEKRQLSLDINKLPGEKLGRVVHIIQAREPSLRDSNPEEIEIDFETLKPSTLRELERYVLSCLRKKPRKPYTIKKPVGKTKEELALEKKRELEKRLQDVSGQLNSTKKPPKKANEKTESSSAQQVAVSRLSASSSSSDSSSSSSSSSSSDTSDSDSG

Homo sapiens [12] = species on record: Homo sapiens; assay: Selectivity index, ratio of IC50 for BRPF1b (unknown origin) to IC50 for recombinant human N-terminal His-tagged BRD4 BD1 (44 to 170 residues) expressed in Escherichia coli by AlphaScreen assay
[13] = biological target: T1, Bromodomain-containing protein 4; assay: Inhibition of BRD4 BD1 in human THP1 cells assessed as inhibition of MSU-induced pyroptosis by measuring caspase+/PI+ cells at 1 uM incubated for 1 hr followed by MSU treatment and measured after 12 hrs by PI/caspase 1 double staining based flow cytometric analysis (reference value: 12.7 %); assay type: cell-based; parameters: scale not given: the % may be the effect or the level left
Rattus norvegicus [14] = assay: In vivo inhibition of MSU-induced BRD4 expression in synovial tissue of Sprague-Dawley rat model of acute gout arthritis at 1 mg/kg, ia administered 1 hr before MSU challenge and measured upto 24 hrs by Western blot analysis; assay type: functional, organism-based
[15] = biological target: T1, Bromodomain-containing protein 4; assay: Inhibition of BRD4 BD1 in human THP1 cells assessed as inhibition of MSU-induced NF-kappaB P65 phosphorylation at 1 uM incubated for 1 hr followed by MSU treatment and measured after 12 hrs by Western blot analysis; assay type: cell-based
[16] = biological target: Bromodomain testis-specific protein (Homo sapiens, UniProt Q58F21); assay: Displacement of tetra-acetylated histone H4 peptide (1-21) from BRDT BD1 (unknown origin) incubated for 30 mins followed by further incubation with tetra-acetylated histone H4 peptide (1-21) for 30 mins by Alphascreen assay
Rattus norvegicus [17] = assay: Anti-arthritic activity in Sprague-Dawley rat model of acute gout arthritis assessed as reduction in MSU-induced IL-1beta level in synovial tissue at 1 mg/kg, ia administered 1 hr before MSU challenge and measured upto 24 hrs by ELISA; assay type: functional, organism-based
Rattus norvegicus [18] = assay: Anti-arthritic activity in Sprague-Dawley rat model of acute gout arthritis assessed as reduction in MSU-induced synovial hyperplasia at 1 mg/kg, ia administered 1 hr before MSU challenge and measured upto 24 hrs by hematoxylin and eosin staining based histopathological analysis; assay type: functional, organism-based
[19] = Metabolic stability in dog assessed as intrinsic hepatic clearance by LC/MS-MS analysis; assay type: ADME, Canis lupus familiaris; conditions: read-out: CLH
Homo sapiens [20] = species on record: Homo sapiens; assay: Selectivity ratio of Kd for immobilized DNA-tagged human BRD4 BD1 to Kd for immobilized DNA-tagged human BRD4 BD2 by BROMOscan analysis
[21] = biological target: T1, Bromodomain-containing protein 4; assay: Binding affinity to immobilized DNA-tagged human BRD4 BD1 by BROMOscan analysis
Rattus norvegicus [22] = assay: In vivo inhibition of MSU-induced NLRP3 inflammasome in synovial tissue of Sprague-Dawley rat model of acute gout arthritis at 1 mg/kg, ia administered 1 hr before MSU challenge and measured upto 24 hrs by Western blot analysis; assay type: functional, organism-based
Rattus norvegicus [23] = assay: Anti-arthritic activity in Sprague-Dawley rat model of acute gout arthritis assessed as reduction in MSU-induced neutrophil infiltration in synovial tissue at 1 mg/kg, ia administered 1 hr before MSU challenge and measured upto 24 hrs hematoxylin and eosin staining based histopathological analysis; assay type: functional, organism-based
[24] = Metabolic stability in human liver microsomes assessed as half life measured upto 60 mins by LC/MS-MS analysis; assay type: ADME, Microsome
[25] = Permeability of compound at 10 uM by PAMPA assay; assay type: ADME; conditions: read-out: permeability
Homo sapiens [26] = species on record: Homo sapiens; assay: Selectivity index, ratio of IC50 for BRD3 BD1 (unknown origin) to IC50 for recombinant human N-terminal His-tagged BRD4 BD1 (44 to 170 residues) expressed in Escherichia coli by AlphaScreen assay
[27] = biological target: T1, Bromodomain-containing protein 4; assay: Inhibition of MSU-induced BRD4 expression in human THP1 cells at 1 uM incubated for 1 hr followed by MSU treatment and measured after 12 hrs by Western blot analysis; assay type: cell-based
[28] = Metabolic stability in dog liver microsomes assessed as half life measured upto 60 mins by LC/MS-MS analysis; assay type: ADME, Canis lupus familiaris, Microsome
RAW264.7 = assay: Inhibition of LPS-induced NO overproduction in mouse RAW264.7 cells at 1 uM incubated for 2 hrs followed by LPS stimulation and measured after 22 hrs by Griess reagent based assay relative to control; assay type: functional; conditions: Mus musculus, RAW264.7
Rattus norvegicus [29] = assay: In vivo inhibition of MSU-induced NLRP3 inflammasome in synovial tissue of Sprague-Dawley rat model of acute gout arthritis at 1 mg/kg, ia administered 1 hr before MSU challenge and measured upto 24 hrs by immunofluorescence based confocal microscopy analysis; assay type: functional, organism-based
[30] = biological target: T1, Bromodomain-containing protein 4; assay: Inhibition of BRD4 BD1 in human THP1 cells assessed as inhibition of MSU-induced pyroptosis by measuring caspase+/PI- cells at 1 uM incubated for 1 hr followed by MSU treatment and measured after 12 hrs by PI/caspase 1 double staining based flow cytometric analysis (reference value: 4.2 %); assay type: cell-based; parameters: scale not given: the % may be the effect or the level left
[31] = Metabolic stability in human liver microsomes assessed as intrinsic clearance measured per mg protein upto 60 mins by LC/MS-MS analysis; assay type: ADME, Microsome; conditions: read-out: CLH

## COc1ccccc1S(=O)(=O)Nc1ccc2c3c(cc(-n4cnc(C)c4)nc13)C(=O)N2C
[1]
  inhibition: Active
[2]
  inhibition: Active
Homo sapiens [3]
  Ratio IC50: 568
[4]
  CLint scaled: 15.8 L/h/kg
Rattus norvegicus [5]
  Activity: 83.1%
Rattus norvegicus [6]
  inhibition: Active
[7]
  microsomal CLint: 135 µL/min/mg
[8]
  inhibition: Active
[9]
  microsomal CLint: 133 µL/min/mg
[10]
  microsomal CLint: 147 µL/min/mg
[11]
  IC50: 21.4 µM
Homo sapiens [12]
  Ratio IC50: 6.5
[13]
  Activity: 4.4%
Rattus norvegicus [14]
  inhibition: Active
[15]
  inhibition: Active
[16]
  IC50: 0.357 µM
Rattus norvegicus [17]
  inhibition: Active
Rattus norvegicus [18]
  inhibition: Active
[19]
  CLint scaled: 11.5 L/h/kg
Homo sapiens [20]
  Selectivity ratio: 238
[21]
  Kd: 0.105 µM
Rattus norvegicus [22]
  inhibition: Active
Rattus norvegicus [23]
  inhibition: Active
[24]
  half-life: 14.8 min
[25]
  Papp at 10 µM: 1.17 nm/s
Homo sapiens [26]
  Ratio IC50: 2.8
[27]
  inhibition: Active
[28]
  half-life: 10.4 min
RAW264.7
  inhibition at 1 µM: 102%
Rattus norvegicus [29]
  inhibition: Active
[30]
  Activity: 4.1%
[31]
  microsomal CLint: 93.5 µL/min/mg
